ChEMBL document CHEMBL1201862, “PubChem BioAssay data set” (2004)
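How tested: cells in 96-well plates exposed to compound for 48 hours at five concentrations. At the GI50, growth is halved.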 Calls of active or inactive are those of the source. Rule as the data show it: active = GI50 up to about 1.1 µM and inactive = higher.

Columns and labels:
Experiment in all cases: DTP human tumour cell line panel, 48 h
A498 = system: A498
CAKI-1 = system: CAKI-1
HL-60 = system: HL-60
HOP-62 = system: HOP-62
M14 = system: M14
MCF7 = system: MCF7
MDA-MB-435 = system: MDA-MB-435
MDA-N = system: MDA-N
NCI-H23 = system: NCI-H23
OVCAR-4 = system: OVCAR-4
RXF 393 = system: RXF 393
SF-268 = system: SF-268
SF-295 = system: SF-295
SK-MEL-28 = system: SK-MEL-28
SK-MEL-2 = system: SK-MEL-2
SNB-19 = system: SNB-19
SR = system: SR
UACC-62 = system: UACC-62
UO-31 = system: UO-31

Structure (SMILES)	GI50 (A498)	GI50 (CAKI-1)	GI50 (HL-60)	GI50 (HOP-62)	GI50 (M14)	GI50 (MCF7)	GI50 (MDA-MB-435)	GI50 (MDA-N)	GI50 (NCI-H23)	GI50 (OVCAR-4)	GI50 (RXF 393)	GI50 (SF-268)	GI50 (SF-295)	GI50 (SK-MEL-28)	GI50 (SK-MEL-2)	GI50 (SNB-19)	GI50 (SR)	GI50 (UACC-62)	GI50 (UO-31)
COc1ccc(-c2nc(N)c(C#N)c3c2CCSc2ccc(C)cc2-3)cc1OC	22.5 µM (inactive)	19.6 µM (inactive)	2.89 µM (inactive)	42.8 µM (inactive)	29.1 µM (inactive)	12.1 µM (inactive)	4.61 µM (inactive)	3.79 µM (inactive)	8.04 µM (inactive)	16.7 µM (inactive)	13.7 µM (inactive)	17.2 µM (inactive)	6.67 µM (inactive)	39.7 µM (inactive)	25.4 µM (inactive)	31.3 µM (inactive)	2.6 µM (inactive)	10.9 µM (inactive)	4.16 µM (inactive)
C/N=C(N)/N=C(\N)Nc1cc2ccccc2c2ccccc12	11.2 µM (inactive)	14.5 µM (inactive)	4.06 µM (inactive)	17.5 µM (inactive)	17 µM (inactive)	13.2 µM (inactive)	15.9 µM (inactive)	13.9 µM (inactive)	17.1 µM (inactive)	14.7 µM (inactive)	14.9 µM (inactive)	13.4 µM (inactive)	17.1 µM (inactive)	17.8 µM (inactive)	18 µM (inactive)	15.8 µM (inactive)	13.8 µM (inactive)	14.9 µM (inactive)	11.9 µM (inactive)
CCCNC(=O)CCC(C)[C@H]1CCC2C3C(C[C@H](OC(C)=O)[C@@]21C)[C@@]1(C)CCC2(C[C@H]1C[C@H]3OC(C)=O)OOC1(CCCCC1)OO2 (some centres undefined)	33.7 µM (inactive)	0.367 µM (active)	1.51 µM (inactive)	0.261 µM (active)	5.02 µM (inactive)	3.04 µM (inactive)	2.23 µM (inactive)	3.05 µM (inactive)	1.12 µM (inactive)	1.74 µM (inactive)	3.24 µM (inactive)	2.02 µM (inactive)	3.79 µM (inactive)	55.5 µM (inactive)	2 µM (inactive)	7.18 µM (inactive)	1.32 µM (inactive)	2.01 µM (inactive)	0.0893 µM (active)
CC1CN(CCO)CCN1c1ccccc1 (centres undefined)	> 100 µM (inactive)	> 100 µM (inactive)	42 µM (inactive)	> 100 µM (inactive)	> 100 µM (inactive)	> 100 µM (inactive)	> 100 µM (inactive)	> 100 µM (inactive)	> 100 µM (inactive)	> 100 µM (inactive)	> 100 µM (inactive)	> 100 µM (inactive)	> 100 µM (inactive)	> 100 µM (inactive)	> 100 µM (inactive)	> 100 µM (inactive)	> 100 µM (inactive)	> 100 µM (inactive)	> 100 µM (inactive)
Cc1ccc(-n2cc(-c3ccc(Cl)cc3)c(C#N)c2N)cc1	18.4 µM (inactive)	21.2 µM (inactive)	4.1 µM (inactive)	17.9 µM (inactive)	15.3 µM (inactive)	14.6 µM (inactive)	17.3 µM (inactive)	18.5 µM (inactive)	15.7 µM (inactive)	14.3 µM (inactive)	10.5 µM (inactive)	18.7 µM (inactive)	17.5 µM (inactive)	18.1 µM (inactive)	15.2 µM (inactive)	17.3 µM (inactive)	6.67 µM (inactive)	15.1 µM (inactive)	13.2 µM (inactive)
O[C@@H]1C=C[C@]23CCN(Cc4cc5c(cc42)OCO5)[C@@H]3C1	> 100 µM (inactive)	26.8 µM (inactive)	> 100 µM (inactive)	92 µM (inactive)	> 100 µM (inactive)	52.1 µM (inactive)	57 µM (inactive)	69.3 µM (inactive)	> 100 µM (inactive)	34 µM (inactive)	20.8 µM (inactive)	> 100 µM (inactive)	40 µM (inactive)	> 100 µM (inactive)	31.3 µM (inactive)	43.1 µM (inactive)	67.8 µM (inactive)	> 100 µM (inactive)	48.2 µM (inactive)
S=C1NCN2CCN(CC2)CNC(=S)C(=S)NCN2CCN(CC2)CNC1=S	> 100 µM (inactive)	35.2 µM (inactive)	24.2 µM (inactive)	37.9 µM (inactive)	30.1 µM (inactive)	54.5 µM (inactive)	39.8 µM (inactive)	67.8 µM (inactive)	43 µM (inactive)	> 100 µM (inactive)	56 µM (inactive)	61.2 µM (inactive)	> 100 µM (inactive)	> 100 µM (inactive)	43.2 µM (inactive)	41.1 µM (inactive)	58.9 µM (inactive)	67.8 µM (inactive)	25.6 µM (inactive)
C=Cc1c(C)c(O)cc2c1-c1ccc(O)c(C)c1CC2	11.6 µM (inactive)	13.9 µM (inactive)	15 µM (inactive)	26.7 µM (inactive)	20.9 µM (inactive)	20.9 µM (inactive)	14.1 µM (inactive)	13.6 µM (inactive)	17.1 µM (inactive)	17.1 µM (inactive)	10.9 µM (inactive)	18.5 µM (inactive)	14.9 µM (inactive)	16.2 µM (inactive)	17.1 µM (inactive)	24.5 µM (inactive)	3.71 µM (inactive)	7.5 µM (inactive)	14.8 µM (inactive)
Cc1cc(=O)n2nc(CSc3nnc(Sc4cc(O)ccc4O)s3)sc2n1	> 100 µM (inactive)	> 100 µM (inactive)	26.4 µM (inactive)	> 100 µM (inactive)	79.1 µM (inactive)	14.2 µM (inactive)	18.5 µM (inactive)	18.6 µM (inactive)	> 100 µM (inactive)	54.7 µM (inactive)	51.6 µM (inactive)	54.6 µM (inactive)	> 100 µM (inactive)	54.1 µM (inactive)	> 100 µM (inactive)	> 100 µM (inactive)	28.3 µM (inactive)	50 µM (inactive)	> 100 µM (inactive)
N=c1oc2ccccc2cc1C(=O)NC12CC3CC(CC(C3)C1)C2	22.1 µM (inactive)	7.52 µM (inactive)	9.16 µM (inactive)	22.6 µM (inactive)	25.7 µM (inactive)	3.7 µM (inactive)	18.6 µM (inactive)	26.2 µM (inactive)	27.4 µM (inactive)	19.9 µM (inactive)	6.52 µM (inactive)	34 µM (inactive)	20.6 µM (inactive)	40.4 µM (inactive)	14 µM (inactive)	24.4 µM (inactive)	2.9 µM (inactive)	15.8 µM (inactive)	0.0887 µM (active)
CCN(CC)CCNc1ccc2ncn3c4c(OC)ccc(O)c4c(=O)c1c23	10 µM (inactive)	32.1 µM (inactive)	30.8 µM (inactive)	15.4 µM (inactive)	13.6 µM (inactive)	3.52 µM (inactive)	24.9 µM (inactive)	21.1 µM (inactive)	21.8 µM (inactive)	6.21 µM (inactive)	5.85 µM (inactive)	6.49 µM (inactive)	16.6 µM (inactive)	12.3 µM (inactive)	> 100 µM (inactive)	19.6 µM (inactive)	1.63 µM (inactive)	35.7 µM (inactive)	33.7 µM (inactive)
